Patent publication US20170050936A1, “CERTAIN CHEMICAL ENTITIES, COMPOSITIONS, AND METHODS” (NEUPHARMA, INC., priority 2013, published 2017)

Legend:
EGFR (ErbB1) = target: T1, EGFR (ErbB1) (Homo sapiens, UniProt P00533); test: Z'-LYTE kinase inhibition assay, EGFR; assay type: biochemical; conditions: read-out: IC50 against EGFR
T1 construct: purchased Invitrogen
Procedure: Inhibitory activities of compounds against BTK, EGFR and EGFR mutants (EGFR L858R, EGFR T790M, EGFR L858R/T790M), FGFR1, FGFR2, JAK2, JAK3 and KDR were measured by Invitrogen using Z'-LYTE® Method as briefly described in the following. Test Compounds are screened in 1% DMSO (final) in the well. For 10 point titrations, 3-fold serial dilutions are conducted from the starting concentration. All ATP Solutions are diluted to a 4× working concentration in Kinase Buffer (50 mM HEPES pH 7.5, 0.01% BRIJ-35, 10 mM MgCl2, 1 mM EGTA). Peptide/Kinase Mixtures are diluted to a 2× working concentration in the appropriate Kinase Buffers as described below. (i) Peptide/Kinase Mixtures for measurement of EGFR (ErbB1): The 2× EGFR (ErbB1)/[…] mixture is prepared in 50 mM HEPES pH 7.5, 0.01% BRIJ-35, 10 mM MgCl2, 4 mM MnCl2, 1 mM EGTA, 2 mM DTT. The final 10 μL Kinase Reaction consists of 1.1-5.25 ng EGFR (ErbB1) and 2 μM […] in 50 mM HEPES pH 7.5, 0.01% BRIJ-35, 10 mM MgCl2, 2 mM MnCl2, 1 mM EGTA, 1 mM DTT. After the 1 hour Kinase Reaction incubation, 5 μL of a 1:64 dilution of Development Reagent B is added. Reaction starts by 30-second shaking of mixture consisting of 2.5 μL 4× test compound, 5 μL 2× kinase reaction mixture and 2.5 μL 4× ATP Solution on Bar-coded Corning, low volume NBS, black 384-well plate (Corning Cat. #3676). Then the mixture is incubated for 60-minute at room temperature for the kinase reaction, followed by addition of 5 μL of a 1:1024 dilution of development reagent A and 30-second plate shake. The mixture is then incubated for another 60-minute at room temperature for development reaction. Finally fluorescence is read by plate reader. To determine IC50 of a compound against EGFR, EGFR mutant and other kinases, a series of concentrations of the compound were tested for the inhibition.

KDR (VEGFR2) = target: T2, KDR (VEGFR2) (Homo sapiens, UniProt P35968); test: Z'-LYTE kinase inhibition assay, KDR; assay type: biochemical; conditions: read-out: IC50 against KDR
T2 construct: purchased Invitrogen
T2 sequence (P35968 20-1356): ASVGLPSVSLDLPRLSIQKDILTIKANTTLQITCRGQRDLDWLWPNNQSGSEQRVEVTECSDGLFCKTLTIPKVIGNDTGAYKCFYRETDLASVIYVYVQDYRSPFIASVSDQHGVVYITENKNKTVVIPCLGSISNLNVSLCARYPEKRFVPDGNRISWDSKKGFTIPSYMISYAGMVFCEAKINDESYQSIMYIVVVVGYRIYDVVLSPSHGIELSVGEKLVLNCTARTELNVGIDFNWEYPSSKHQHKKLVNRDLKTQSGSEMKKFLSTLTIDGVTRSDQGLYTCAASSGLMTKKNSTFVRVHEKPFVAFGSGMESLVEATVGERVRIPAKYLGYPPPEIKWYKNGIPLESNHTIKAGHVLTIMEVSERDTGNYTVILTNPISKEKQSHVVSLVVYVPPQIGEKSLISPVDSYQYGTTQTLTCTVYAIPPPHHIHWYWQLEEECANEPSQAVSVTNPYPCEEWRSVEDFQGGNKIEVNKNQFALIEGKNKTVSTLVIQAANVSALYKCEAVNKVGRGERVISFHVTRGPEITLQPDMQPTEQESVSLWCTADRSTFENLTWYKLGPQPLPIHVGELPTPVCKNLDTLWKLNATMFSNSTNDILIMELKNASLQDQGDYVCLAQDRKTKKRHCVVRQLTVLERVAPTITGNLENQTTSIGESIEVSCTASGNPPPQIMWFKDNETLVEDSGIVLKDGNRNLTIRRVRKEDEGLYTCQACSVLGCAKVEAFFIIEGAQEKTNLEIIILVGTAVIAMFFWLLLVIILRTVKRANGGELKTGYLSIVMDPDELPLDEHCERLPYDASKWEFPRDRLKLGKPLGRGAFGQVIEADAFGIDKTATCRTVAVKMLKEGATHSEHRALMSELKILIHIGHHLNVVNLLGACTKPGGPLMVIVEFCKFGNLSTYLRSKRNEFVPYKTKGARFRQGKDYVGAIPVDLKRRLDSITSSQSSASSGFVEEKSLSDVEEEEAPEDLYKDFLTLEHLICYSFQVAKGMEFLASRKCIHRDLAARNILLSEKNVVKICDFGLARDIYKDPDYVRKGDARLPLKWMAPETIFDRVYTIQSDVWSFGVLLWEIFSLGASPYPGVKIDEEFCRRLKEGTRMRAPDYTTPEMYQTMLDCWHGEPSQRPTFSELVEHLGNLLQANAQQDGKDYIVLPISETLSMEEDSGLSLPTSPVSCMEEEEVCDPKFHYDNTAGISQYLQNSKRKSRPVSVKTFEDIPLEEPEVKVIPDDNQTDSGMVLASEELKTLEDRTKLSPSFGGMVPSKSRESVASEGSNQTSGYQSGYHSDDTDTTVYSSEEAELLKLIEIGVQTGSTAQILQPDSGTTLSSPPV
Procedure: (§1) Inhibitory activities of compounds against BTK, EGFR and EGFR mutants (EGFR L858R, EGFR T790M, EGFR L858R/T790M), FGFR1, FGFR2, JAK2, JAK3 and KDR were measured by Invitrogen using Z′-LYTE® Method as briefly described in the following.
(§2) Test Compounds are screened in 1% DMSO (final) in the well. For 10 point titrations, 3-fold serial dilutions are conducted from the starting concentration. All ATP Solutions are diluted to a 4× working concentration in Kinase Buffer (50 mM HEPES pH 7.5, 0.01% BRIJ-35, 10 mM MgCl2, 1 mM EGTA). Peptide/Kinase Mixtures are diluted to a 2× working concentration in the appropriate Kinase Buffers as described below.
(v) Peptide/Kinase Mixtures for measurement of KDR (VEGFR2):
The 2× KDR (VEGFR2)/Tyr 01 mixture is prepared in 50 mM HEPES pH 7.5, 0.01% BRIJ-35, 10 mM MgCl2, 1 mM EGTA. The final 10 μL Kinase Reaction consists of 0.5-11.7 ng KDR (VEGFR2) and 2 μM Tyr Olin 50 mM HEPES pH 7.5, 0.01% BRIJ-35, 10 mM MgCl2, 1 mM EGTA. After the 1 hour Kinase Reaction incubation, 5 μL of a 1:256 dilution of Development Reagent B is added.
(§3) Reaction starts by 30-second shaking of mixture consisting of 2.5 μL 4× test compound, 5 μL 2× kinase reaction mixture and 2.5 μL 4× ATP Solution on Bar-coded Corning, low volume NBS, black 384-well plate (Corning Cat. #3676). Then the mixture is incubated for 60-minute at room temperature for the kinase reaction, followed by addition of 5 μL of a 1:1024 dilution of development reagent A and 30-second plate shake. The mixture is then incubated for another 60-minute at room temperature for development reaction. Finally fluorescence is read by plate reader.
(§4) To determine IC50 of a compound against EGFR, EGFR mutant and other kinases, a series of concentrations of the compound were tested for the inhibition. […] The scale utilized in Table 4 is as follows: +++ less than 100 nM, ++100-500 nM and + greater than 500 nM.

FGFR1 = target: T3, FGFR1 (Homo sapiens, UniProt P11362); test: Z'-LYTE kinase inhibition assay, FGFR1; assay type: biochemical; conditions: read-out: IC50 against FGFR1
T3 construct: purchased Invitrogen
T3 sequence (P11362 22-822): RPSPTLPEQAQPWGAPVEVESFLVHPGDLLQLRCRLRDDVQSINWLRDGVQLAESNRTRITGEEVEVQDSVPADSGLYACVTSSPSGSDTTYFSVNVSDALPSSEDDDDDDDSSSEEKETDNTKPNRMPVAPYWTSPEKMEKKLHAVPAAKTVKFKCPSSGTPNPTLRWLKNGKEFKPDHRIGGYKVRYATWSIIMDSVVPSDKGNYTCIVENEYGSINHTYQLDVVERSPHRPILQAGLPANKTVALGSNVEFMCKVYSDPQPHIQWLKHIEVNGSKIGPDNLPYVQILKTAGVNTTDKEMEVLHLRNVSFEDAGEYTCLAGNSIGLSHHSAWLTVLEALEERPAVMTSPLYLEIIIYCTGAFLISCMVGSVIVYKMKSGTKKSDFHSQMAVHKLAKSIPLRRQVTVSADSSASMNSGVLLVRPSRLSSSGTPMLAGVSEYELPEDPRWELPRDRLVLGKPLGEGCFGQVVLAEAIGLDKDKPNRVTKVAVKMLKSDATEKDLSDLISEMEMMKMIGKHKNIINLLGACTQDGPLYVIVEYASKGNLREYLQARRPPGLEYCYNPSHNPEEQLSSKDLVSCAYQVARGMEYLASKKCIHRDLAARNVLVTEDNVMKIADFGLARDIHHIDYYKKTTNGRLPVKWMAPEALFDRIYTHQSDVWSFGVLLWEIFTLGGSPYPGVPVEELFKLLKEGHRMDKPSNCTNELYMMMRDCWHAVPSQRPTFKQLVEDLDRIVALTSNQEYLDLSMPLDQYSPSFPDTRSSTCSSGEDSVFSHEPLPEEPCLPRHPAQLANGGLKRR
Procedure: as §1, §2
(v) Peptide/Kinase Mixtures for measurement of FGFR1:
(§5) The 2× FGFR1/Tyr 04 mixture is prepared in 50 mM HEPES pH 7.5, 0.01% BRIJ-35, 10 mM MgCl2, 4 mM MnCl2, 1 mM EGTA, 2 mM DTT. The final 10 μL Kinase Reaction consists of 0.41-3.5 ng FGFR1 and 2 μM Tyr 04 in 50 mM HEPES pH 7.5, 0.01% BRIJ-35, 10 mM MgCl2, 2 mM MnCl2, 1 mM EGTA, 1 mM DTT. After the 1 hour Kinase Reaction incubation, 5 μL of a 1:64 dilution of Development Reagent B is added.
as §3, §4

FGFR2 = target: T4, FGFR2 (Homo sapiens, UniProt P21802); test: Z'-LYTE kinase inhibition assay, FGFR2; assay type: biochemical; conditions: read-out: IC50 against FGFR2
T4 construct: purchased Invitrogen
T4 sequence (P21802 22-821): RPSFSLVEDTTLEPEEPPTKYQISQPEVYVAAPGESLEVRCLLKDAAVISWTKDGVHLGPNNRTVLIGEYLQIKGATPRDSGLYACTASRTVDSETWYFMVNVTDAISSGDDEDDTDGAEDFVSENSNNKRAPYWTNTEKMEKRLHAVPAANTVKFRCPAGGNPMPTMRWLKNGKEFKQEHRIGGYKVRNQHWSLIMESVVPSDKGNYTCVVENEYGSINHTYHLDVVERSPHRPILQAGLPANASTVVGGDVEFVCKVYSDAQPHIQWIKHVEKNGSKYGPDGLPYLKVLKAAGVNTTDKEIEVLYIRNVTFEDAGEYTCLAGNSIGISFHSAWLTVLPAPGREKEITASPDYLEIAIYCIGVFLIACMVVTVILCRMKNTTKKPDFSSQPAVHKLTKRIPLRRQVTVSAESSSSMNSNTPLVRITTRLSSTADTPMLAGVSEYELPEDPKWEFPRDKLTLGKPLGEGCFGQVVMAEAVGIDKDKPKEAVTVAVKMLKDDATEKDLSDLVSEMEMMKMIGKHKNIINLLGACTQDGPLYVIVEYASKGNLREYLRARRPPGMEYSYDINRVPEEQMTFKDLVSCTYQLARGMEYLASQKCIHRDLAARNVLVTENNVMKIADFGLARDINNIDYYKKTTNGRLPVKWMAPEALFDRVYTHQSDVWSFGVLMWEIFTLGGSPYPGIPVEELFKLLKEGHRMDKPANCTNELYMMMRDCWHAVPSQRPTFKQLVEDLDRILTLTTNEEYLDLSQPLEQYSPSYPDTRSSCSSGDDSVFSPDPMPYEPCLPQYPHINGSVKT
Procedure: as §1, §2
(v) Peptide/Kinase Mixtures for measurement of FGFR2:
as §5, with “FGFR2/Tyr” for “FGFR1/Tyr”, “0.19-2.36” for “0.41-3.5”, “FGFR2” for “FGFR1”
as §3, §4

H1299 cells = test: Inhibition of cancer cell growth, MTT assay, H1299; conditions: Homo sapiens, NCI-H1299, 72 h, read-out: IC50 in H1299 cells
Procedure: Inhibition of cell growth by compounds was measured using MTT assay (Mosmann, T., Journal of Immunological Methods, 1983, 65, 55-63). Tumor cell lines were purchased from ATCC (American Type Culture Collection, Manassas, Va.). All cell lines were maintained in RPMI 1640 (Hyclone) supplemented with 10% fetal bovine serum (FBS, Hyclone), glutamine (2 mM, Hyclone), and antibiotics (penicillin 100 U/mL and streptomycin 50 μg/mL) at 37° C. in a humidified atmosphere of 5% CO2 in air. Taxol (as a positive control, Sigma) and compounds were dissolved in DMSO (Sigma), and the final concentration of DMSO in the medium was 1%. Tumor cells were plated in 96-well plates at densities of about 4000 cells/well of a 96-well plate and allowed to adhere/grow for 24 h. They were then treated with various concentrations of drug for 72 h. […] The number of cells remaining after 72 h was compared to the number of viable cells at the time of compound addition by measuring the absorbance at 570 nm, allowing for the calculation of growth inhibition.
All concentrations of compounds were tested in triplicate and controls were averaged over 4 wells. IC50 was calculated by plotting the concentration of compound vs the percentage of inhibition in treated wells using GraphPad Prism 5. […]

T1 sequence (P00533 25-1210): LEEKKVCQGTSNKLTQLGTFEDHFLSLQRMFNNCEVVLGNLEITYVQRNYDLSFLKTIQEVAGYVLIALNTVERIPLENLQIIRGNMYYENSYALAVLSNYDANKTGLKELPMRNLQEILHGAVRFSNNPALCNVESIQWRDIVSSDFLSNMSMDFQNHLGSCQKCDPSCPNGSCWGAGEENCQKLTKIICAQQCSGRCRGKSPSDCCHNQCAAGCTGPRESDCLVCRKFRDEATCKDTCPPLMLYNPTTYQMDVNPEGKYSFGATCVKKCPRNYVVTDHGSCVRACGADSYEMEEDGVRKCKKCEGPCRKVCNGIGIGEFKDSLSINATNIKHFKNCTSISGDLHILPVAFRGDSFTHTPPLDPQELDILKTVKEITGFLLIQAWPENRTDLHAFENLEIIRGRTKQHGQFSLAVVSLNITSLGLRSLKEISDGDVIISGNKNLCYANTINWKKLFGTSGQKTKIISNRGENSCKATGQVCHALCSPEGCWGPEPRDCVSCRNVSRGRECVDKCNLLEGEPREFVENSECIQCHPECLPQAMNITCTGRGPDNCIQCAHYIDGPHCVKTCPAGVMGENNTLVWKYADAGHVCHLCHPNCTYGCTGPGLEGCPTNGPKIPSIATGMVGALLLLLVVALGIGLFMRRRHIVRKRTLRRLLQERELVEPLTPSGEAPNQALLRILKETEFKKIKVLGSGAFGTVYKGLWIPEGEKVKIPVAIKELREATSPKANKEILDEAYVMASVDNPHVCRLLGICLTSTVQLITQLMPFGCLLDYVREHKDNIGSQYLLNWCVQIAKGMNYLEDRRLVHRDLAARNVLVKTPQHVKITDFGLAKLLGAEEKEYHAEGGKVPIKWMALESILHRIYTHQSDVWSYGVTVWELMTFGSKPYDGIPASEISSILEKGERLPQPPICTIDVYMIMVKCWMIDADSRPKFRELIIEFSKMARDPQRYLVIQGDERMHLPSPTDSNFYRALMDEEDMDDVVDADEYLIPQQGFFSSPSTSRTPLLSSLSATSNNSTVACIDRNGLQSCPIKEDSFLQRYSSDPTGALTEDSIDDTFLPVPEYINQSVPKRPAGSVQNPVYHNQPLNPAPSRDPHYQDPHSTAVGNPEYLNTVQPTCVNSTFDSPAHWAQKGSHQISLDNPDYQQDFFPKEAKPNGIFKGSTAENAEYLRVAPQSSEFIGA

| Compound | IC50 (KDR (VEGFR2)) | IC50 (FGFR1) | IC50 (FGFR2) | IC50 (EGFR (ErbB1)) | further results |
| --- | --- | --- | --- | --- | --- |
| C=CC(=O)Nc1cccc(-c2cccc3cnc(Nc4ccc(N5CCN(C(C)=O)CC5)cc4)nc23)c1 [Example C032, N-(3-(2-((4-(4-acetylpiperazin-1-yl)phenyl)amino)quinazolin-8-yl)phenyl)acrylamide] | – | – | – | 100 to 500 nM | – |
| C=CC(=O)Nc1cccc(-c2cccc3cnc(Nc4ccc(OC5CCN(C)CC5F)cc4)nc23)c1 (centres unmarked) [Example C079, N-(3-(2-((4-((3-fluoro-1-methylpiperidin-4-yl)oxy)phenyl)amino)quinazolin-8-yl)phenyl)acrylamide] | – | – | – | 100 to 500 nM | – |
| C=CC(=O)Nc1cccc(-c2cccc3cnc(Nc4ccc(N5CCN(C)CC5)c(C(N)=O)c4)nc23)c1 [Example C085, 5-((8-(3-acrylamidophenyl)quinazolin-2-yl)amino)-2-(4-methylpiperazin-1-yl)benzamide] | – | – | – | 100 to 500 nM | – |
| C=CC(=O)Nc1cccc(-c2cccc3cnc(Nc4ccc(OCCO)cc4)nc23)c1 [Example C108, N-(3-(2-((4-(2-hydroxyethoxy)phenyl)amino)quinazolin-8-yl)phenyl)acrylamide] | – | – | – | 100 to 500 nM | – |
| C=CC(=O)Nc1cccc(-c2cccc3cnc(Nc4cc(F)c(N5CCN(C)CC5)c(F)c4)nc23)c1 [Example C146, N-(3-(2-((3,5-difluoro-4-(4-methylpiperazin-1-yl)phenyl)amino)quinazolin-8-yl)phenyl)acrylamide] | – | – | – | – | IC50 (H1299 cells): < 100 nM |
| C=CC(=O)Nc1cccc(-c2cccc3cnc(Nc4ccc(N5CCN(CCO)CC5)c(F)c4F)nc23)c1 [Example C151, N-(3-(2-((2,3-difluoro-4-(4-(2-hydroxyethyl)piperazin-1-yl)phenyl)amino)quinazolin-8-yl)phenyl)acrylamide] | 100 to 500 nM | 100 to 500 nM | 100 to 500 nM | – | – |

Now from value to compound, other results behind:

| IC50 (KDR (VEGFR2)) | IC50 (FGFR1) | IC50 (FGFR2) | Compound | IC50 (EGFR (ErbB1)) | further results |
| --- | --- | --- | --- | --- | --- |
| 100 to 500 nM | 100 to 500 nM | – | C=CC(=O)Nc1cccc(-c2cccc3cnc(Nc4ccc(N5CCN(C)CC5)cc4F)nc23)c1 [Example C044, N-(3-(2-((2-fluoro-4-(4-methylpiperazin-1-yl)phenyl)amino)quinazolin-8-yl)phenyl)acrylamide] | – | – |
| – | – | 100 to 500 nM | C=CC(=O)Nc1cccc(-c2cccc3cnc(Nc4ccc(N5CCN(CCO)CC5)cc4)nc23)c1 [Example C059, N-(3-(2-((4-(4-(2-hydroxyethyl)piperazin-1-yl)phenyl)amino)quinazolin-8-yl)phenyl)acrylamide] | – | – |
| 100 to 500 nM | 100 to 500 nM | 100 to 500 nM | C=CC(=O)Nc1cccc(-c2cccc3cnc(Nc4ccc(N5CCN(CCO)CC5)cc4F)nc23)c1 [Example C147, N-(3-(2-((2-fluoro-4-(4-(2-hydroxyethyl)piperazin-1-yl)phenyl)amino)quinazolin-8-yl)phenyl)acrylamide] | – | – |
